Experiments:
Assay in all cases: KINOMEscan
Format in all cases: binding
Conditions in all cases: read-out: % control activity remaining
CAMK2A = molecular target: T1, CAMK2A (Homo sapiens, UniProt Q9UQM7)
T1 construct: purchased Eurofins DiscoverX KINOMEscan

DLK = molecular target: T2, DLK (Homo sapiens, UniProt Q12852)
T2 construct: purchased Eurofins DiscoverX KINOMEscan
T2 sequence (Q12852 1-859): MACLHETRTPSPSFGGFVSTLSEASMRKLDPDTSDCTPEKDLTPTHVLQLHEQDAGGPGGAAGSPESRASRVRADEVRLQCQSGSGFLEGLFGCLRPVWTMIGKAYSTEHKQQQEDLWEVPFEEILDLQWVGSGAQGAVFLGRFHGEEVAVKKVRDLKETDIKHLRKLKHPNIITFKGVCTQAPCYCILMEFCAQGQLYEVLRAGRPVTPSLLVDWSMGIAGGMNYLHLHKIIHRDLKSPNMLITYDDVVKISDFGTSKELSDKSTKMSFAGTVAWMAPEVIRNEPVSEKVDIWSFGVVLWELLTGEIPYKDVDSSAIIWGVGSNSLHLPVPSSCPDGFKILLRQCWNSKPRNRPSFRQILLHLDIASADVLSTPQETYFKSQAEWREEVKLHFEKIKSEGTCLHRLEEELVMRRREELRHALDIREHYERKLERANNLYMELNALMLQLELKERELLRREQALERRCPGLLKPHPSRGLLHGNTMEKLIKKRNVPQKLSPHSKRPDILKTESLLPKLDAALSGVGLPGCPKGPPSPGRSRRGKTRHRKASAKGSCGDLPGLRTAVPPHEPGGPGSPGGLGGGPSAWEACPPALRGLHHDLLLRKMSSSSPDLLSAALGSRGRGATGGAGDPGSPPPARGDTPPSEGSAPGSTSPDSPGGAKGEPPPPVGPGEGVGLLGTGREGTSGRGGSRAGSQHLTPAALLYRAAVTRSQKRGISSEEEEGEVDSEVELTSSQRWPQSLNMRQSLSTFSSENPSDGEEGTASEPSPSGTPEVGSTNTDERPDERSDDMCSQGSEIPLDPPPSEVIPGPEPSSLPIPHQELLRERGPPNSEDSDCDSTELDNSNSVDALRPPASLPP

HIPK3 = molecular target: T3, HIPK3 (Homo sapiens, UniProt Q9H422)
T3 construct: purchased Eurofins DiscoverX KINOMEscan
T3 sequence (Q9H422 whole entry): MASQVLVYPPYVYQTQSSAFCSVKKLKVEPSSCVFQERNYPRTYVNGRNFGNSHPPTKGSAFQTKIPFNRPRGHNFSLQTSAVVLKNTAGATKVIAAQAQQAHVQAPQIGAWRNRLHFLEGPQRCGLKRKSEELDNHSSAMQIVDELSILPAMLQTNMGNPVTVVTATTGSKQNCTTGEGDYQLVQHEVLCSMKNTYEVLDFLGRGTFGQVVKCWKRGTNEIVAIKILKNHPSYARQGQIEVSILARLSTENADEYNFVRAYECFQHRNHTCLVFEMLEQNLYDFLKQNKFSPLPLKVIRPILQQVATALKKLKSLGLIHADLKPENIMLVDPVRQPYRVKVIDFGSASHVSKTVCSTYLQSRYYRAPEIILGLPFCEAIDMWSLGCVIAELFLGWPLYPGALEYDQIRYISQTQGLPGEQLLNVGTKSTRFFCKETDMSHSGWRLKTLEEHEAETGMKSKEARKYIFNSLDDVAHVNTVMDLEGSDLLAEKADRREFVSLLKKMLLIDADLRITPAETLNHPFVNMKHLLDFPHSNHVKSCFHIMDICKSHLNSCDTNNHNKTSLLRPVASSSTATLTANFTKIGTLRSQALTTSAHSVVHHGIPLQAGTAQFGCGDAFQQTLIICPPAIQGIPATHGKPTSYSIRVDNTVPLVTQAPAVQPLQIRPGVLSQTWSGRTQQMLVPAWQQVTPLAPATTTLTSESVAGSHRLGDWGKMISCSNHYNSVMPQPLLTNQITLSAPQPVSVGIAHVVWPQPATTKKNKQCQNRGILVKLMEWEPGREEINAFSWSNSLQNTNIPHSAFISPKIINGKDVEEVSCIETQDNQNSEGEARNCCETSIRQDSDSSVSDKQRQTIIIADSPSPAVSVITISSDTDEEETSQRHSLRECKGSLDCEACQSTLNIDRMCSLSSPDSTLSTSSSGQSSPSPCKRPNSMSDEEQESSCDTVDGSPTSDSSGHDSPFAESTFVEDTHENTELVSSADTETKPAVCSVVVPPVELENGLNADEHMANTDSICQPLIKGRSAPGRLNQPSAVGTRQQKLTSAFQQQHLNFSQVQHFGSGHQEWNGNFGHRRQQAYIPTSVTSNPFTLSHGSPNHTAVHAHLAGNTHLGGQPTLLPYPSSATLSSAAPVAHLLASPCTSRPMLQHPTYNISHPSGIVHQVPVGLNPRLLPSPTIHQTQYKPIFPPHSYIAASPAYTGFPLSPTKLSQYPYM

MAP3K15 = molecular target: T4, MAP3K15 (Homo sapiens, UniProt Q6ZN16)
T4 construct: purchased Eurofins DiscoverX KINOMEscan
T4 sequence (Q6ZN16 1-1313): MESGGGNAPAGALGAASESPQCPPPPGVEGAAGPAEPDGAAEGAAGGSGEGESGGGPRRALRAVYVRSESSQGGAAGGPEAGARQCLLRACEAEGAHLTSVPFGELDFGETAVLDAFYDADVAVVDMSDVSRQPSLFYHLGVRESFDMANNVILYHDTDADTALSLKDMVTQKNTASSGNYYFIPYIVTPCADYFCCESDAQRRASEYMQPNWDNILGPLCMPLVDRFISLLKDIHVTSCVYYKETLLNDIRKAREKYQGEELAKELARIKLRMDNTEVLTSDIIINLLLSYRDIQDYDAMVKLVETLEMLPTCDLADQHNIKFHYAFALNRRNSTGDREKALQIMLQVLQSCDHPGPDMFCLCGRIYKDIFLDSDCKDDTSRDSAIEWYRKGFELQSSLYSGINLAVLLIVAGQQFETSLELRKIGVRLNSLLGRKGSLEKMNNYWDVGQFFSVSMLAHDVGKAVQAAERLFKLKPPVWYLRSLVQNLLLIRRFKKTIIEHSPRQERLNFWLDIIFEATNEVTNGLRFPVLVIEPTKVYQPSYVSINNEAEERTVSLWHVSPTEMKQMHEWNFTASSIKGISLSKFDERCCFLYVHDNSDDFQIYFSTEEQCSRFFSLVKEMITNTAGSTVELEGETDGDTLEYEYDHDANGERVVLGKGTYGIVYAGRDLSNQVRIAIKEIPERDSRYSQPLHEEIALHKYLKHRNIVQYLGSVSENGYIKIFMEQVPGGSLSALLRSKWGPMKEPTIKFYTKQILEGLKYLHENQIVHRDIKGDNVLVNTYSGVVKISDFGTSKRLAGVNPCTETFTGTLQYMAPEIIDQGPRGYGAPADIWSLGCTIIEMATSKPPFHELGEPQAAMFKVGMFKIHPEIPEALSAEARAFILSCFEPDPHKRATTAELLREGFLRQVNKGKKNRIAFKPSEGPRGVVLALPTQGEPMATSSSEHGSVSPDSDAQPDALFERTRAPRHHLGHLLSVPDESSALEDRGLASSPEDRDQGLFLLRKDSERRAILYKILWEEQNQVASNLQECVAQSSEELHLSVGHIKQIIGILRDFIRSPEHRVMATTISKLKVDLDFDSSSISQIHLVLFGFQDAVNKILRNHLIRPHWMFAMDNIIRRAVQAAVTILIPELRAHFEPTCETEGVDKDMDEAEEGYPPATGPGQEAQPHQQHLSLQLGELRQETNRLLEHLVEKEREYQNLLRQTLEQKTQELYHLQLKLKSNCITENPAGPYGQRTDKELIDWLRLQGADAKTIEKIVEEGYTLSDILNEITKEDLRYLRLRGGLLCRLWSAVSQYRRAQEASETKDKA

WNK3 = molecular target: T5, WNK3 (Homo sapiens, UniProt Q9BYP7)
T5 construct: purchased Eurofins DiscoverX KINOMEscan
T5 sequence (Q9BYP7 whole entry): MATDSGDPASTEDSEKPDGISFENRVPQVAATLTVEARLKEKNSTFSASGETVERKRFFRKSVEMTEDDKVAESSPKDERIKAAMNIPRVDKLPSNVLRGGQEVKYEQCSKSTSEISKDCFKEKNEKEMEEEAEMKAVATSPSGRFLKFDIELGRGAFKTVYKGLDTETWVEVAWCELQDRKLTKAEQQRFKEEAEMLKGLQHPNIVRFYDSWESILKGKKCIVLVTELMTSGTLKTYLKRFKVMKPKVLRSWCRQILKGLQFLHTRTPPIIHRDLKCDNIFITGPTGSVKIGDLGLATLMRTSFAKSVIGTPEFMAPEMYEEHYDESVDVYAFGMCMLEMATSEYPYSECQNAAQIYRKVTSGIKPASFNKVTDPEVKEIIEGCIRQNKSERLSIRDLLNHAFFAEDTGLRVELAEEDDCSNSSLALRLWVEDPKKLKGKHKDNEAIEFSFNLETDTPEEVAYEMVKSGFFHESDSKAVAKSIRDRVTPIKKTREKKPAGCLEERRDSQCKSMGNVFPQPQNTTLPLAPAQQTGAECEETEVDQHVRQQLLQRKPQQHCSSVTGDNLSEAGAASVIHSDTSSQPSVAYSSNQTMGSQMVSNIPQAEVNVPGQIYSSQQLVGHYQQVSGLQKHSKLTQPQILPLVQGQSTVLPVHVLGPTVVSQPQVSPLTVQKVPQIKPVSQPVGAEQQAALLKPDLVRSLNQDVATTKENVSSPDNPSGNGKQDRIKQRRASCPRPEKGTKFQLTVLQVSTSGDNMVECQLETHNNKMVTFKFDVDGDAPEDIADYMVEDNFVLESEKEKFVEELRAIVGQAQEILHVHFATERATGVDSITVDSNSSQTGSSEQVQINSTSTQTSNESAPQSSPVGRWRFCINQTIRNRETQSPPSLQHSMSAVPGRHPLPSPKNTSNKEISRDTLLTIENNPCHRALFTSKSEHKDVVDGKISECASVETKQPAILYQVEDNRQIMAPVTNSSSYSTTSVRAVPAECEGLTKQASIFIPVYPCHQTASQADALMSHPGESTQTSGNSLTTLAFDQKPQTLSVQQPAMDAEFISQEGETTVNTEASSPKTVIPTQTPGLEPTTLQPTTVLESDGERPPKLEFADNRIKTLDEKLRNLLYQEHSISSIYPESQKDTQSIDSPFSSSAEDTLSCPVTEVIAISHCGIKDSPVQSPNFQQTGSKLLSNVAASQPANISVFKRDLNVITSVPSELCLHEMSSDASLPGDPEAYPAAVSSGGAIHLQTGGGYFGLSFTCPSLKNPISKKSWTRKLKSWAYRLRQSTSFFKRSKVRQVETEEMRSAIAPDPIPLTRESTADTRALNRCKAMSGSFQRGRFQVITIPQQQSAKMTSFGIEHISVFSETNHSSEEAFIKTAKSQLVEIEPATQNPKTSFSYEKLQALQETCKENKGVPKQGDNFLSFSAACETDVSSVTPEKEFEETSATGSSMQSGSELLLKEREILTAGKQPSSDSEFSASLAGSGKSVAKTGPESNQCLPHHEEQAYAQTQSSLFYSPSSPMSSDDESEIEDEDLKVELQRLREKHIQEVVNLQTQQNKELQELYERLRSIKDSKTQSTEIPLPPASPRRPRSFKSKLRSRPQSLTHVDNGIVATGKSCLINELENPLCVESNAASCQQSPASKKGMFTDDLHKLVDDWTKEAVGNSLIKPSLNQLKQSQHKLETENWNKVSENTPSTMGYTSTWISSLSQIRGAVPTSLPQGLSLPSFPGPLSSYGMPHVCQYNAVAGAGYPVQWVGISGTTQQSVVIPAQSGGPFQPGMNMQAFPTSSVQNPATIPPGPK

T1 sequence (Q9UQM7 whole entry): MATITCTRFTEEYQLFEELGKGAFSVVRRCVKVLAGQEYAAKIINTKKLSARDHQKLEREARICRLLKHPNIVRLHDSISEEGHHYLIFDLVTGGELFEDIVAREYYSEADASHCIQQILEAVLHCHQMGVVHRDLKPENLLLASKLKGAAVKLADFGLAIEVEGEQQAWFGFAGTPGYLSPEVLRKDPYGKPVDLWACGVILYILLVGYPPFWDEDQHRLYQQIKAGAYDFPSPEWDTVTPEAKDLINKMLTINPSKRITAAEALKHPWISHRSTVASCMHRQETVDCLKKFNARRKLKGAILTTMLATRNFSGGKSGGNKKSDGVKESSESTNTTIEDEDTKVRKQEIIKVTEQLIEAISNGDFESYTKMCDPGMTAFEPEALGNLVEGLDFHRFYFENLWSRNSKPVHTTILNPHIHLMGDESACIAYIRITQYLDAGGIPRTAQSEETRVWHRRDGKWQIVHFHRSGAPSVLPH

| Structure (SMILES) | remaining binding at 1 µM (CAMK2A) [%] | remaining binding at 1 µM (DLK) [%] | remaining binding at 1 µM (HIPK3) [%] | remaining binding at 1 µM (MAP3K15) [%] | remaining binding at 1 µM (WNK3) [%] |
| --- | --- | --- | --- | --- | --- |
| Clc1cc(NCC2CC2)c2ncc(-c3ccc4[nH]ncc4c3)n2n1 [compound 2, 6-Chloro-N-(cyclopropylmethyl)-3-(1H-indazol-5-yl)imidazo[1,2-b]pyridazin-8-amine] | 100 | 89 | 63 | 83 | 96 |
| O=C(CN1CCOCC1)N[C@H]1CC[C@H](Nc2cc(Cl)nn3c(-c4ccc5[nH]ncc5c4)cnc23)CC1 [compound 26] | 47 | 83 | 2.4 | 98 | 100 |
| CN1CCC(CNc2cc(Cl)nn3c(-c4cc5nc(Nc6ccccc6)[nH]c5cc4F)cnc23)CC1 [compound 31, 6-Chloro-3-(6-fluoro-2-(phenylamino)-1H-benzo[d]imidazol-5-yl)-N-((1-methylpiperidin-4-yl)methyl)imidazo[1,2-b]pyridazin-8-amine] | 99 | 100 | 89 | 100 | 82 |

— article PMC6437697 (Journal of Medicinal Chemistry, 2019)
